Results published in article PMC10366102, “Dose escalation and expansion cohorts in patients with advanced breast cancer in a Phase I study of the CDK7-inhibitor samuraciclib” (Nature Communications, 2023).
“And” between values parts separate entries of the source, which are not always exact repeats. Equal values may be shown once. “Also recorded” adds a separate entry of the source. Read-outs that look alike come from different tables or passages of the source.

Key:
[1] = test system: advanced solid malignancies; assay: Module 1A anti-tumor activity (RECIST V1.1, PSA); format: in vivo, human
From the text: treatment RECIST assessment. […]
number of patients in the particular analysis population. Duration of response (DoR) was defined as the time from documentation of tumor response to disease progression. Progression-free survival (PFS) was […]
cause, whichever occurred first. Efficacy results were summarized descriptively and Kaplan -Meier plots provided where appropriate. […]

[2] = parameters: method as in ref IB; conditions: ref IB, cited from earlier work
hERG channel = test system: hERG channel; parameters: method as in ref IB; conditions: whole-cell patch-clamp, HEK cells, ref IB, cited from earlier work
CYP2C8 = test system: CYP2C8; parameters: method as in ref IB; conditions: human microsomes; ref IB; cited from earlier work
[3] = Module 2A trough PK of samuraciclib and fulvestrant; format: in vivo, human
From the text: PK parameters were derived using standard non-compartmental methods.
o. Radionuclide Bone Scans, Whole Body should be performed at Screening. See also footnote a.
• If at Screening bone lesions were identified, scans will be repeated during the active treatment phase and during follow-up visits every 16 weeks (± 7 days) from Cycle 1 Day
1, and at the time of confirmation of CR.
• If no bone lesions were identified at Screening, bone scans will only be performed when clinically indicated (i.e., patient describes new or worsening bone pain or has
increasing alkaline phosphatase level or other signs and symptoms of new/progressing bone metastases) but are required at the time of confirmation of CR. New abnormalities
found on subsequent bone scans must be confirmed by CT scan with bone windows or MRI.
p. Adverse Event Reporting : Serious Adverse Events (SAEs) must be reported from the time the patient provides informed consent through and including 28 calendar days after the last
administration of the study drug. SAEs occurring after the active reporting period has ended should be reported if the investigator becomes aware of them. All SAEs that the investigator
believes have at least a reasonable possibility of being related to the study drugs are to be reported to the Sponsor. All AEs (serious and non-serious) should be recorded on the eCRF […]

[4] = parameters: method as in ref IB; conditions: mouse microsomes; ref IB; cited from earlier work
Ames test strains = test system: Ames test strains; parameters: method as in ref IB; conditions: up to the lower limit of toxicity; ref IB; cited from earlier work
dogs = conditions: cited from earlier work; for AUC0-t: Dog, 20 mg/kg/day oral, ref IB
[5] = Module 1A, 36 evaluable patients
[6] = two castrate-resistant prostate cancer patients

SMILES: CC(C)c1cnn2c(NCc3ccccc3)cc(NC[C@H]3CCNC[C@@H]3O)nc12 [samuraciclib, Samuraciclib]
- Best change in lesion size on CT scan ([1]; 1 colorectal cancer patient, 120 mg): -21%
- Decline in cancer antigen CA 15-3 ([1]; 1 patient with HR-positive BC, interim): 30%
- Decline in PSA ([1]; 2/2 patients with castrate-refractory prostate cancer, interim, listed as CT7001): 45% and 30%
- Best objective response: Complete response ([1]; Module 1A N = 36): 0 n (%)
- Best objective response: Partial response ([1]; Module 1A N = 36): 1 (2.8) n (%)
- Best objective response: Progressive disease ([1]; Module 1A N = 36): 17 (47.2) n (%)
- Disease control rate ([1]; Module 1A N = 36): 19 (52.8) n (%)
- Disease control rate [1, 5]: 53% and 52.8%
- Patients maintaining stable disease ≥ 12 weeks [1, 5]: 38.9%
- Reduction in PSA compared to baseline [1, 6]: 28% and 44%
- Oral bioavailability ([2]; rat): good oral bioavailability
- Apparent elimination half-life (T½) ([2]; rats): 4.8 h
- Plasma clearance ([2]; rats): high
- Volume of distribution ([2]; rats): high volume of distribution
- IC50 (CYP2C8): > 50 µM
- Interaction between samuraciclib and fulvestrant PK [3]: no fulvestrant interaction; also recorded: did not indicate an interaction; also recorded: No clinical PK interactions
- Intrinsic clearance [4]: intermediate
- Mutations in five strains Ames test (Ames test strains): no mutations
- AUC0-t (dogs; Female): 5010 ng·h/mL
- AUC0-t (dogs; Male): 3880 ng·h/mL
- Highest non-severely toxic dose (HNSTD) (dogs; dog, in vivo): 20 mg/kg/day
